According to patent US6916818B2, “Azaindoles having serotonin receptor affinity” (NPS Allelix Corp., priority 1999, dated 2005):

Biological target: T1, human 5HT6 receptor (Homo sapiens, UniProt P50406)
T1 construct: expressed in transfected cells
Test: Functional assay: serotonin-stimulated adenyl cyclase (cAMP EIA) in HEK 293 cells expressing 5HT6
Format: cell-based
Conditions: test compound 100 nM and 10 μM along with serotonin
Experimental: The 5HT6 receptor responds to serotonin and other agonists by increasing adenyl cyclase mediated production of cyclic AMP. Particular test compounds were assayed for their effect on adenyl cyclase activity using the procedure described below.
Compounds acting as antagonists at the 5HT6 receptor will antagonize the agonist effect of serotonin and thus, will block the serotonin-induced increase in adenyl cyclase activity.
HEK 293 cells stably expressing the human 5HT6 receptor were plated in 6 well plates in DMEM (Dulbecco's Modified Eagle Medium)/F12 (Nutrient Mixture F12—Ham) media with 10% FCS (fetal calf serum) and G418 (Geneticen Disulfate, 500 ug/ml), and incubated at 37° C. in a CO2 incubator. The cells were allowed to grow to about 70% confluence before use in the assay.
The culture medium of each well was removed, and the wells were washed once with serum free media. Then 2 ml of SFM+IBMX medium (SFM with 0.5 mM IBMX, 3-isobutyl-1-methylxanthine, 0.1% ascorbic acid and 10 mM pargyline) was added to each well and the wells were incubated at 37° C. for 10 min. Following incubation, the SFM+IBMX medium was removed from each well and fresh SFM+IBMX media was added to the wells separately with one of a) serotonin (1 μM final concentration); b) test compound (100 nM and 10 μM, to test for agonist activity); and c) test compound (100 nM and 10 μM) along with serotonin ([…], to test for antagonist activity). Basal adenyl cyclase activity was determined from wells with only SFM+IBMX media added.
The cells were then incubated at 37° C. for 30 minutes in a CO2 incubator. […] The pellets were discarded and the supernatants were stored at 4° C. until assayed for cAMP concentration. cAMP content for each extract was determined in duplicate by EIA (enzyme-immunoassay) using the Amersham Biotrak cAMP EIA kit (Amersham RPN 225). Final results were expressed as % basal response for agonists and % reversal of serotonin response for antagonists.
The total stimulation of adenyl cyclase by serotonin (So) was determined as the difference in concentration of cAMP in the serotonin-treated cells (Cd) and the basal-treated cells (Cf). […]
The net stimulation (S) of basal adenyl cyclase by an agonist test compound was determined as the difference in cAMP concentration in the drug-treated cell (C) and the basal-treated cells (Cf). […]
The net stimulation (Ss) of basal adenyl cyclase by serotonin in the presence of an antagonist test compound was determined as the difference in cAMP concentration in the serontonin-drug-treated cells (Cs) and the basal-treated cells (Cf). […]
The ability of the antagonist test compound to reverse the serotonin stimuation of adenyl cyclase activity (% reversal, % R) was determined by the formula: % R=(1−Ss/So)×100

T1 sequence (P50406 whole entry): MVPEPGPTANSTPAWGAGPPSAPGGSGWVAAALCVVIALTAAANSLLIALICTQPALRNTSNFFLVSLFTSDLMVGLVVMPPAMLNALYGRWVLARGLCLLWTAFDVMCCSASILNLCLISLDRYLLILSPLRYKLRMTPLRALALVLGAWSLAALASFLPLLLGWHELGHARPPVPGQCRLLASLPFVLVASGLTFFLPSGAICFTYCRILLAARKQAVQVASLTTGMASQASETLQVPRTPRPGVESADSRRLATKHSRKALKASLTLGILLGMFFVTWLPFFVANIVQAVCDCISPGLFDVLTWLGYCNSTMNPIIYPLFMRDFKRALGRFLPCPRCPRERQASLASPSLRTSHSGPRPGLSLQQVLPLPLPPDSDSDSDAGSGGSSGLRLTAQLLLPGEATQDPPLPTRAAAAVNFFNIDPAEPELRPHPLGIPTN

Row | Structure (SMILES) | reversal of serotonin stimulation of adenyl cyclase (antagonist activity)
1 | O=S(=O)(c1cccc2ccccc12)n1cc(C2=CCN3CCCC3C2)c2cccnc21 (stereo not shown) [3-(1,2,3,5,8,8a-Hexahydro-7-indolizinyl)-1-(1-naphthalenesulfonyl)-7-azaindole] | able to reverse the serotonin stimulation of adenyl cyclase
2 | O=S(=O)(c1ccccc1)n1cc(C2=CCN3CCCC3C2)c2cccnc21 (stereo not shown) [3-(1,2,3,5,8,8a-Hexahydro-7-indolizinyl)-1-benzenesulfonyl-7-azaindole] | able to reverse the serotonin stimulation of adenyl cyclase
3 | O=S(=O)(c1cccc2ccccc12)n1cc(C2=CCN3CCCC3C2)c2cnccc21 (stereo not shown) [3-(1,2,3,5,8,8a-Hexahydro-7-indolizinyl)-1-(1-naphthalenesulfonyl)-5-azaindole] | able to reverse the serotonin stimulation of adenyl cyclase
4 | O=S(=O)(c1ccccc1)n1cc(C2=CCN3CCCC3C2)c2cnccc21 (stereo not shown) [3-(1,2,3,5,8,8a-Hexahydro-7-indolizinyl)-1-benzenesulfonyl-5-azaindole] | able to reverse the serotonin stimulation of adenyl cyclase
